Some test systems named below: NCI-H226 lung; KM12 colon; A549 NSCLC; OVCAR-3 ovarian; SF-539 CNS; HCT-15 colon; HOP-62 NSCLC; HS 578T breast; SW-620 colon; UACC-62 melanoma.
Assay in all cases: NCI-60 cell line screen, 48 h

Where “and” joins values, the source holds several entries; their conditions need not be identical. Equal values may be shown once.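 Test compounds were applied to cells in 96-well plates for 48 hours at 5 doses. GI50 marks 50% less growth. TGI: total growth inhibition.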

Among the data in PubChem BioAssay (NCI) are TGI and GI50 values, retold here.

For `COc1cc2c3c(c1OC)-c1cc4c(cc1CC3(C#N)N(C(=O)c1ccccc1)CC2)OCO4` (configuration not stated), the TGI in the experiment with NCI-H226 lung is 78.2 µM; in the experiment with KM12 colon it was greater than 100 µM; in the experiment on A549 NSCLC it was greater than 100 µM; with OVCAR-3 ovarian it was greater than 86.6 µM; in the experiment on SF-539 CNS it was 54.7 µM; in the experiment with HCT-15 colon, greater than 100 µM. Moreover, the TGI with HOP-62 NSCLC is greater than 76.1 µM; with HS 578T breast, 82 µM; in the experiment on SW-620 colon it was greater than 100 µM; with UACC-62 melanoma, 43.2 µM.

With `C/C(=N\NC(=S)N1CCCCCC1)c1ccccn1`, the GI50 is 0.245 µM in the experiment on NCI-H226 lung; 0.0688 µM with KM12 colon; less than 0.0188 µM in the experiment with A549 NSCLC; 143 nM in the experiment on SF-539 CNS; 0.0497 µM with HCT-15 colon; 0.0381 µM in the experiment on HOP-62 NSCLC. Further, in the experiment with SW-620 colon, the GI50 was less than 0.0204 µM. The TGI with NCI-H226 lung is 3.62 µM and 5.35 µM; in the experiment on KM12 colon, 0.517 µM and 5.16 µM; in the experiment with A549 NSCLC, 6.46 µM and 2.49 µM; in the experiment with OVCAR-3 ovarian, 0.172 µM; with SF-539 CNS it was 1.74 µM and 2.26 µM; in the experiment on HCT-15 colon, 1.99 µM and 4.43 µM. Moreover, the TGI in the experiment on HOP-62 NSCLC was 2.4 µM and 3.98 µM; with HS 578T breast, 3.85 µM; with SW-620 colon, 1.85 µM and 4.74 µM; with UACC-62 melanoma it was 0.33 µM and 0.268 µM.

As for `COc1ccc(C(O)(CCC(C)C)C(CN2CCOCC2)c2ccc(Cl)cc2)cc1` (configuration not stated), the GI50 in the experiment on NCI-H226 lung was 13.2 µM; in the experiment on KM12 colon, 11.4 µM; in the experiment with A549 NSCLC, 11.6 µM; with OVCAR-3 ovarian, 12900 nM; in the experiment on SF-539 CNS, 15400 nM; in the experiment with HCT-15 colon, 10.3 µM. Moreover, the GI50 is 18.8 µM in the experiment on HOP-62 NSCLC, 15.2 µM in the experiment with HS 578T breast, 11.4 µM in the experiment on SW-620 colon and 13.4 µM in the experiment with UACC-62 melanoma. Further, the TGI in the experiment with NCI-H226 lung worked out at 32.1 µM; in the experiment with KM12 colon, 26.2 µM; in the experiment with A549 NSCLC it was 35 µM; with OVCAR-3 ovarian, 26.2 µM; in the experiment on SF-539 CNS it was 30.3 µM; in the experiment with HCT-15 colon, 24.1 µM. For the same compound, the TGI in the experiment on HOP-62 NSCLC worked out at 37.4 µM; with HS 578T breast it was 40.4 µM; in the experiment with SW-620 colon, 26.8 µM; with UACC-62 melanoma, 29.1 µM.

As to `COc1ccc(-c2nnc(N3CCN(C(=O)CN4CCN(c5ccccc5)CC4)CC3)nc2-c2ccc(OC)cc2)cc1`, the GI50 in the experiment on NCI-H226 lung is 3.76 µM; in the experiment on KM12 colon, 3.67 µM; in the experiment on A549 NSCLC, 4.85 µM; in the experiment with OVCAR-3 ovarian, 3390 nM; in the experiment with SF-539 CNS it was 6030 nM; in the experiment with HCT-15 colon it was 3.13 µM. The GI50 in the experiment on HOP-62 NSCLC is 13 µM; in the experiment on HS 578T breast, 5.15 µM; with SW-620 colon it was 5.26 µM; in the experiment on UACC-62 melanoma, 6.48 µM. Besides, the TGI was greater than 100 µM in the experiment on NCI-H226 lung; greater than 100 µM with KM12 colon; greater than 100 µM in the experiment with A549 NSCLC; greater than 100 µM in the experiment on OVCAR-3 ovarian; 35.3 µM with SF-539 CNS; greater than 100 µM in the experiment on HCT-15 colon. In addition, the TGI with HOP-62 NSCLC is 42.7 µM; in the experiment with HS 578T breast, 71.5 µM; with SW-620 colon it was greater than 100 µM; with UACC-62 melanoma it was 40 µM.

For the compound `O=c1[nH]c2ccc(O)cc2o1`, the TGI in the experiment with NCI-H226 lung, with KM12 colon, in the experiment with A549 NSCLC, in the experiment on OVCAR-3 ovarian, in the experiment with SF-539 CNS and with HCT-15 colon was greater than 100 µM in each case. Further, the TGI in the experiment on HOP-62 NSCLC, in the experiment with HS 578T breast, in the experiment with SW-620 colon and in the experiment on UACC-62 melanoma was greater than 100 µM in each case.

Regarding `COc1cc(/C=C\c2cc(OC)c(OC)c(OC)c2)cc(N/C=C\C(=O)c2cc(OC)c(OC)c(OC)c2)c1OC`, the GI50 in the experiment on NCI-H226 lung is 5.46 µM; in the experiment on KM12 colon, 3.21 µM; in the experiment on A549 NSCLC, 5.14 µM; in the experiment on OVCAR-3 ovarian, 2310 nM; with SF-539 CNS, 1920 nM; in the experiment on HCT-15 colon it was 3.08 µM. In addition, the GI50 with HOP-62 NSCLC is 2.46 µM; in the experiment with HS 578T breast, 2.76 µM; with SW-620 colon, 4.12 µM; in the experiment with UACC-62 melanoma, 3.11 µM. For the same compound, the TGI was greater than 100 µM with NCI-H226 lung; greater than 100 µM with KM12 colon; greater than 100 µM with A549 NSCLC; 5.82 µM in the experiment with OVCAR-3 ovarian; 4.51 µM in the experiment on SF-539 CNS; greater than 100 µM in the experiment on HCT-15 colon. In addition, the TGI in the experiment on HOP-62 NSCLC, in the experiment with HS 578T breast, in the experiment on SW-620 colon and in the experiment on UACC-62 melanoma was greater than 100 µM in each case.

For the compound `CS(=O)(=O)Nc1cc(-c2ccc3ncnc(Nc4c(Cl)ccc5c4OCO5)c3c2)cnc1Cl`, the GI50 in the experiment with NCI-H226 lung is 0.309 µM; in the experiment on KM12 colon, 0.465 µM; in the experiment on A549 NSCLC, 0.255 µM; with OVCAR-3 ovarian, 127 nM; in the experiment with SF-539 CNS it was 208 nM; with HCT-15 colon, 0.204 µM. For the same compound, the GI50 with HOP-62 NSCLC is 0.156 µM; with HS 578T breast, 0.0477 µM; with SW-620 colon, 0.327 µM; with UACC-62 melanoma it was 0.0732 µM. Moreover, the TGI in the experiment on NCI-H226 lung is 3.54 µM; in the experiment on KM12 colon, 1.87 µM; in the experiment with A549 NSCLC it was 1.94 µM; in the experiment on OVCAR-3 ovarian it was 0.925 µM; in the experiment with SF-539 CNS, 0.988 µM; in the experiment on HCT-15 colon it was 1.49 µM. The TGI stood at 3.53 µM in the experiment on HOP-62 NSCLC, 0.521 µM in the experiment on HS 578T breast, 2.99 µM with SW-620 colon and 0.785 µM in the experiment on UACC-62 melanoma.

As for `CC12CCC3c4ccc(O)cc4CCC3C1C/C(=N\O)C2O` (configuration not stated), the TGI in the experiment on NCI-H226 lung, in the experiment with KM12 colon, in the experiment on A549 NSCLC, in the experiment with OVCAR-3 ovarian, in the experiment on SF-539 CNS and in the experiment on HCT-15 colon was greater than 100 µM in each case. The TGI with HOP-62 NSCLC, in the experiment on HS 578T breast, with SW-620 colon and in the experiment on UACC-62 melanoma was greater than 100 µM each time.

On to `CC(C)=CCc1cc(O)cc2c1OC(C=C(C)C)C1=C2C(=O)C2=C(C1=O)S(=O)(=O)CCN2` (configuration not stated), for which the GI50 with NCI-H226 lung is 4.75 µM; in the experiment on KM12 colon, 5.8 µM; with A549 NSCLC, 6.14 µM; with OVCAR-3 ovarian, 1180 nM; in the experiment with SF-539 CNS it was 2800 nM; in the experiment on HCT-15 colon, 5.8 µM. Besides, the GI50 in the experiment on HOP-62 NSCLC was 5.66 µM; with HS 578T breast, 3.15 µM; in the experiment with SW-620 colon, 5.34 µM; in the experiment with UACC-62 melanoma, 2.81 µM. Also, the TGI in the experiment with NCI-H226 lung is greater than 16.7 µM; with KM12 colon, greater than 16.7 µM; with A549 NSCLC, greater than 16.7 µM; with OVCAR-3 ovarian, 14.8 µM; in the experiment with SF-539 CNS, 5.09 µM; in the experiment on HCT-15 colon, greater than 16.7 µM. For the same compound, the TGI with HOP-62 NSCLC is greater than 16.7 µM; in the experiment with HS 578T breast it was 13 µM; in the experiment on SW-620 colon, 16.5 µM; in the experiment on UACC-62 melanoma it was 5.46 µM.
